Patent publication US4950792A, “Substituted p,p'-methylene-bis-anilines” (Lonza Ltd., priority 1985, dated 1990)

Columns and labels:
[1] = thermal stability: exotherm on heating; assay type: physicochemical; conditions: for exotherm of the product / time after which an exotherm could be determined: 350° C.
Protocol: Further, it was possible to establish that the compounds according to the invention are extremely temperature-stable. Thus, most of such compounds could be heated to 350° C. (comparison of MOCA around 200° C.) without the occurrence of an exotherm. The maximum possible working temperature with the new compounds consequently is substantially higher than with the usual chain-lengthening agents (comparison with MOCA, 140° C.). If this temperature is not used, at least the safe, decomposition-free working temperature range is substantially greater than the prior art compounds.

[2] = prior art; cited from earlier work

SMILES: Nc1ccc(Cc2ccc(N)c(Cl)c2)cc1Cl [Amine I, 4,4'-methylene-bis(2-chloroaniline), reference compound]
- temperature to which compound could be heated without the occurrence of an exotherm ([1]; comparison with MOCA): around 200 °C
- carcinogenicity [2]: carcinogenicity

SMILES: CCc1c(N)c(Cl)cc(Cc2cc(Cl)c(N)c(CC)c2Cl)c1Cl [Amine IV, 4,4'-Methylene-bis(2,5-dichloro-6-ethylaniline)]
- exotherm of the product ([1]; time not stated): An exotherm

SMILES: CCC(C)c1cc(Cc2cc(C(C)CC)c(N)c(C(C)CC)c2Cl)c(Cl)c(C(C)CC)c1N (stereo not drawn) [Amine IX, 4,4'-Methylene-bis-(3-chloro-2,6-di-sec-butylaniline)]
- exotherm of the product ([1]; over 8 hours): No exotherm

SMILES: CCc1cc(Cc2cc(CC)c(N)c(CC)c2Cl)c(Cl)c(CC)c1N [Amine V, 4,4'-Methylene-bis-(3-chloro-2,6-diethylaniline)]
- exotherm of the product ([1]; over 8 hours): No exotherm

SMILES: CCc1cc(Cc2cc(CC)c(N)c(C)c2Cl)c(Cl)c(C)c1N [Amine VI, 4,4'-Methylene-bis-(3-chloro-2-methyl-6-ethylaniline)]
- exotherm of the product ([1]; over 8 hours): No exotherm

SMILES: Cc1cc(Cc2cc(C)c(N)c(C(C)C)c2Cl)c(Cl)c(C(C)C)c1N [Amine VII, 4,4'-Methylene-bis-(5-chloro-2-methyl-6-isopropylaniline)]
- temperature up to which no exotherm could be determined [1]: > 320 °C

SMILES: Cc1c(N)c(C(C)C)cc(Cc2cc(C(C)C)c(N)c(C)c2Cl)c1Cl [Amine VIII, 4,4'-Methylene-bis(3-chloro-2-methyl-6-isopropylaniline)]
- exotherm of the product ([1]; over 8 hours): No exotherm

SMILES: CCC(C)c1c(N)c(C)cc(Cc2cc(C)c(N)c(C(C)CC)c2Cl)c1Cl (stereo not drawn) [Amine X, 4,4'-Methylene-bis(5-chloro-2-methyl-6-sec-butylaniline)]
- temperature up to which no exotherm could be determined [1]: > 340 °C

SMILES: CCc1c(N)c(C)cc(Cc2cc(C)c(N)c(CC)c2Cl)c1Cl [Example 2, 4,4'-Methylene-bis-(5-chloro-2-methyl-6-ethylaniline)]
- exotherm of the product ([1]; over 8 hours): No exotherm

SMILES: CC(C)c1cc(Cc2cc(C(C)C)c(N)c(C(C)C)c2Cl)c(Cl)c(C(C)C)c1N [Example 4, 4,4'-Methylene-bis(3-chloro-2,6-diisopropylaniline)]
- time after which an exotherm could be determined [1]: 3 h

SMILES: CCC(C)c1cc(Cc2cc(C(C)CC)c(N)c(C)c2Cl)c(Cl)c(C)c1N (stereo not drawn) [Example 9, 4,4'-Methylene-bis(3-chloro-2-methyl-6-sec-butylaniline)]
- time after which an exotherm could be determined [1]: 2 h
